Experimental data published in ChEMBL document CHEMBL1125121, “Synthesis and activity of a potent N-methyl-D-aspartic acid agonist, trans-1-aminocyclobutane-1,3-dicarboxylic acid, and related phosphonic and carboxylic acids” (J Med Chem, 1990).
Calls of active or inactive are those of the source. No cut-off for these calls is given here.

What was measured:
Format in all cases: functional
[1] = target: T1, Glutamate receptor ionotropic, AMPA (Rattus norvegicus) (UniProt P19491+P19492+P19493+P19490); experiment: Antagonistic activity against 5 uM of quis/AMPA at the concentration of 100 uM; parameters: scale not given: the % may be the effect or the level left
[2] = target: T2, Glutamate receptor ionotropic, kainate (Rattus norvegicus) (UniProt P22756+Q01812+P42260+P42264+Q63273); experiment: Antagonistic activity against Ionotropic glutamate receptor kainate at the concentration of 100 uM; parameters: scale not given: the % may be the effect or the level left
[3] = target: T3, Glutamate NMDA receptor (Rattus norvegicus) (UniProt P35439+Q00959+Q00960+Q00961+Q62645+Q8VHN2+Q9R1M7); experiment: Antagonistic activity against 10 uM of N-methyl-D-aspartate glutamate receptor at the concentration of 100 uM; parameters: scale not given: the % may be the effect or the level left
[4] = target: T3, Glutamate NMDA receptor (Rattus norvegicus); experiment: Depression of depolarizing response vs 10 uM N-methyl-D-aspartate glutamate receptor at the concentration of 500 uM; inactive
[5] = target: T2, Glutamate receptor ionotropic, kainate (Rattus norvegicus); experiment: Antagonistic activity against Ionotropic glutamate receptor kainate at the concentration of 500 uM; ns = not significant
[6] = target: T1, Glutamate receptor ionotropic, AMPA (Rattus norvegicus); experiment: Antagonistic activity against 5 uM of quis/AMPA at the concentration of 500 uM; ns = not significant
[7] = target: T3, Glutamate NMDA receptor (Rattus norvegicus); experiment: Antagonistic activity against 10 uM of N-methyl-D-aspartate glutamate receptor at the concentration of 500 uM; parameters: scale not given: the % may be the effect or the level left
[8] = target: T2, Glutamate receptor ionotropic, kainate (Rattus norvegicus); experiment: Antagonistic activity against Ionotropic glutamate receptor kainate at the concentration of 200 uM; ns = not significant
[9] = target: T1, Glutamate receptor ionotropic, AMPA (Rattus norvegicus); experiment: Antagonistic activity against 5 uM of quis/AMPA at the concentration of 200 uM; ns = not significant
[10] = target: T3, Glutamate NMDA receptor (Rattus norvegicus); experiment: Antagonistic activity against 10 uM of N-methyl-D-aspartate glutamate receptor at the concentration of 200 uM; parameters: scale not given: the % may be the effect or the level left
[11] = target: T3, Glutamate NMDA receptor (Rattus norvegicus); experiment: Depression of depolarizing response vs 10 uM N-methyl-D-aspartate glutamate receptor at the concentration of 200 uM; inactive
[12] = target: T1, Glutamate receptor ionotropic, AMPA (Rattus norvegicus); experiment: Antagonistic activity against 5 uM of quis/AMPA at the concentration of 200 uM; parameters: scale not given: the % may be the effect or the level left
[13] = target: T2, Glutamate receptor ionotropic, kainate (Rattus norvegicus); experiment: Antagonistic activity against Ionotropic glutamate receptor kainate at the concentration of 200 uM; parameters: scale not given: the % may be the effect or the level left
[14] = target: T3, Glutamate NMDA receptor (Rattus norvegicus); experiment: Antagonistic activity against 10 uM of N-methyl-D-aspartate glutamate receptor at the concentration of 500 uM; ns = not significant
[15] = target: T3, Glutamate NMDA receptor (Rattus norvegicus); experiment: Depression of depolarizing response vs 10 uM N-methyl-D-aspartate glutamate receptor at the concentration of 500 uM

Row | Structure (SMILES) | Activity [4] | Activity [5] | Activity [6] | Activity [10] | Activity [15] | further results
1 | NC1(C(=O)O)CC(=CP(=O)(O)O)C1 (configuration not stated) | inactive | – | – | – | – | Activity [1]: 30%; Activity [2]: 25%; Activity [3]: 40%
2 | N[C@]1(C(=O)O)C[C@@H](CCCP(=O)(O)O)C1.N[C@]1(C(=O)O)C[C@H](CCCP(=O)(O)O)C1 | inactive | inactive | inactive | – | – | Activity [7]: 50%
3 | N[C@]1(C(=O)O)C[C@@H](CP(=O)(O)O)C1 | – | – | – | 40% | – | Activity [8]: inactive; Activity [9]: inactive; Activity [11]: inactive
4 | N[C@]1(C(=O)O)C[C@@H](CP(=O)(O)O)C1.N[C@]1(C(=O)O)C[C@H](CP(=O)(O)O)C1 | inactive | – | – | 40% | – | Activity [12]: 25%; Activity [13]: 25%
5 | N[C@]1(C(=O)O)C[C@H](CC(=O)O)C1 | – | inactive | inactive | – | 0.65 | Activity [14]: inactive
6 | N[C@]1(C(=O)O)C[C@@H](CC(=O)O)C1 | – | – | – | 50% | 0.25 | –
